What all share (format): in vitro ADME
The target in series [1] is T1, aldehyde oxidase (hAOX, AOX1) (Homo sapiens, UniProt Q06278).
T1 construct: human aldehyde oxidase (hAOX), a cytosolic drug-metabolizing enzyme expressed in the human liver; tissue Gibco; host or cells: human liver cytosol
T1 sequence (Q06278 1-1338): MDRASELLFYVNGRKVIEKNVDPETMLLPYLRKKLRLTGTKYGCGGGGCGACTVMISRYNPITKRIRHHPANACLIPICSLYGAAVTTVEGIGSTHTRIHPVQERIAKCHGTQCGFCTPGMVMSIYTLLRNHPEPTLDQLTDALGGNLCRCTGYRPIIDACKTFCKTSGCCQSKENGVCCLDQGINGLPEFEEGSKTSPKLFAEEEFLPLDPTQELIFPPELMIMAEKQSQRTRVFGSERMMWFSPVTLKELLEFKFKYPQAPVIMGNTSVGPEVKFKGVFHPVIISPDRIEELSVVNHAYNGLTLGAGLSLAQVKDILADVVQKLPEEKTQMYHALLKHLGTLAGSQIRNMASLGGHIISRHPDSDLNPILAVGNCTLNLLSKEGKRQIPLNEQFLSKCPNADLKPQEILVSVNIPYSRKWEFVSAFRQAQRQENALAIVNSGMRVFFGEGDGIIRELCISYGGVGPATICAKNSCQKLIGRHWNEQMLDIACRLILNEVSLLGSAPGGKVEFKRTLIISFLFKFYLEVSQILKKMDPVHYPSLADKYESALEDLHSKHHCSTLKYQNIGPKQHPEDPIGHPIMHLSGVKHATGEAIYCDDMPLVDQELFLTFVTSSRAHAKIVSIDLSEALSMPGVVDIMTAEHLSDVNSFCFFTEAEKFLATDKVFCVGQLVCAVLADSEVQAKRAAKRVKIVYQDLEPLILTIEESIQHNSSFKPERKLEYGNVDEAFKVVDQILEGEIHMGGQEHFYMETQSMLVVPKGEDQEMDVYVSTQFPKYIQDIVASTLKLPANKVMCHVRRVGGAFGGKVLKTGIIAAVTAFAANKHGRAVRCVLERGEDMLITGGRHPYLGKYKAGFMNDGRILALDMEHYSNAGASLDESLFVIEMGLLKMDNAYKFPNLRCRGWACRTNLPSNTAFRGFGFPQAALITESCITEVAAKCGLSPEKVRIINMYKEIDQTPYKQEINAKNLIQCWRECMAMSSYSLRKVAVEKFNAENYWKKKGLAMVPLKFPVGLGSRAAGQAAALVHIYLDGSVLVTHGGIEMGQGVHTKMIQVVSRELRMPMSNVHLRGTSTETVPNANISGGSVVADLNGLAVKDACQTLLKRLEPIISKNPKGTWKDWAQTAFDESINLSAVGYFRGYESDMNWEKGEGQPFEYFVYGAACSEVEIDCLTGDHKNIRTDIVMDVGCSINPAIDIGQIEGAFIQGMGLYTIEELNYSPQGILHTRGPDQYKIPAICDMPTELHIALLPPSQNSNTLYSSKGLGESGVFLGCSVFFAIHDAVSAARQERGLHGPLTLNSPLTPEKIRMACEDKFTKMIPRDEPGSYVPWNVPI
Description: Metabolism in human liver cytosol with/without hydralazine (hAOX). Conditions: human, human liver cytosol, pH 7.4; Figure 7A.

The target of series [2] is T2, human aldehyde oxidase (hAOX) in human liver cytosol (Homo sapiens, UniProt Q06278).
T2 construct: human aldehyde oxidase (hAOX), a cytosolic drug-metabolizing enzyme expressed in the human liver; tissue Gibco; host or cells: human liver cytosol
T2 sequence (Q06278 1-1338): T1 sequence (Q06278 1-1338)
The description is as above. Conditions: for reactions observed in human liver cytosol: 30, 60, 90 min, absence and presence of hydralazine, both in the VHL ligand moiety; for hAOX percentage of substrate left at the final time point of analysis / hAOX t1/2: supplement CSV; for hAOX percentage of substrate left at the final time point of analysis: in brackets, final time point 90 min; for hAOX t1/2: human liver cytosol 1 mg/mL, up to 90 min.

Series [3] in a line: Metabolic stability in cryopreserved human hepatocytes. Particulars: human, cryopreserved human hepatocytes (pooled, suspension).
Where [4] appears, read: Table S1, PROTACs, cryopreserved human hepatocytes, read-out: t1/2.
Setting [5] is: supplement CSV, human hepatocytes, read-out: HLH t1/2.

The source of these data is paper PMC8015227, “Understanding the Metabolism of Proteolysis Targeting Chimeras (PROTACs): The Next Step toward Pharmaceutical Applications” (Journal of Medicinal Chemistry, 2020).

Read-outs that look alike come from different tables or passages of the source.

Consider `Cc1ncsc1-c1ccc([C@H](C)NC(=O)[C@@H]2C[C@@H](O)CN2C(=O)[C@@H](NC(=O)CCCCNC(=O)COc2c(-c3csc(N4CCOCC4)n3)ccc(F)c2F)C(C)(C)C)cc1` [Compound 33], for which the half-life at 1 µM is more than 1.5 h in series [1]; 1.24 h in series [3] (Figures 3-5, cryopreserved human hepatocytes, read-out: half-life (t1/2)); 1.24 h in series [3] (setting [4]); 1.24 h in series [3] (setting [5]). Moreover, the “reactions observed in human liver cytosol” value in series [2] was “the hydrolysis of an amide and an oxidation”. For the same compound, in series [2], the “hAOX percentage of substrate left at the final time point of analysis” value worked out at 83.5%. In addition, the “hAOX t1/2” value in series [2] is more than 1.5 h.

`Cc1ncsc1-c1ccc([C@H](C)NC(=O)[C@@H]2C[C@@H](O)CN2C(=O)[C@@H](NC(=O)CCCCN(C)C(=O)COc2c(-c3csc(N4CCOCC4)n3)ccc(F)c2F)C(C)(C)C)cc1` [Compound 34] yielded a half-life at 1 µM in series [1] of more than 1.5 h. Besides, in series [2], the “reactions observed in human liver cytosol” value was “the hydrolysis of an amide and an oxidation”; the “hAOX percentage of substrate left at the final time point of analysis” value turned out to be 83.4%; the “hAOX t1/2” value was more than 1.5 h. In series [3] (setting [4]), the half-life at 1 µM was found to be 1.43 h. Moreover, the half-life at 1 µM in series [3] (setting [5]) was determined as 1.43 h.
